{"source": "patent US11236088B2", "about": "“Heterocyclic compounds and their application in medicine” (KIND PHARMACEUTICAL, priority 2017, dated 2022)", "note": "pIC50: −log10 of the molar value.", "data": [{"test_system": "MCF-7 cells", "assay": "Inhibitory effect on the growth of MCF-7 cells (CellTiter-Glo, 10 days)", "format": "cell-based", "details": "Homo sapiens, MCF7, 240 h, 10 days incubation, CellTiter-Glo chemiluminescence", "procedure": "Assay 2: Inhibitory effect of compounds of the present invention on the growth of MCF-7 cells by a cell drug inhibition experiment\n1. Experimental Materials\n1) Reagents: DMEM high glucose medium (Lonza #12-604F), FBS (BI #04-00F1ACS), antibiotics (Thermofisher #15070063), bovine insulin (Western reagent #11070-73-8), trypsin (Thermofisher #25200-056), CellTiter-Glo reagent (Promega #G7571)\n2) Instruments: American MD-M5 microplate reader 5;\n2. Experimental Procedures:\n1) 100 μl of MCF-7 cells was added to a medium in a white opaque 96-well plate at a density of 5000 cells/ml in which the medium is DMEM high-glucose medium supplemented with 10% FBS. The cells were cultured in a 5% CO2 cell incubator at 37° C. for 24 hours.\n2) Different concentrations of corresponding compounds were added to the 96-well plate for incubating MCF-7 cells. The cells were incubated for 10 days in a 5% CO2 cell incubator.\n3) To each well of MCF-7 cells, 100 μl of CellTiter-Glo reagent was added and then set aside at room temperature for 10 minutes. The chemiluminescence signal was read using an MD-M5 microplate reader, and the data was processed using GraphPad Prism to calculate IC50 value.", "values": [{"smiles": "CC(C)C[C@H]1[C@H](c2c(F)cc(OC3CN(C=O)C3)cc2F)c2ccc3[nH]ncc3c2CN1C", "note": "[Example 30, 3-(3,5-difluoro-4-((6S, 7S)-7-isobutyl-8-methyl-6,7,8,9-tetrahydro-3H-pyrazolo [3,4-h]isoquinolin-6-yl)phenoxy) azetidin-1-aldehyde]", "pIC50": "≥ 9.00"}, {"smiles": "CN1Cc2c(ccc3[nH]ncc23)[C@@H](c2c(F)cc(SC3CN(CCCF)C3)cc2F)[C@@H]1CC1CC1", "note": "[Example 25]", "pIC50": "6.00 to 8.00"}, {"smiles": "CC(=O)N1CC(Oc2cc(F)c([C@@H]3c4ccc5[nH]ncc5c4CN(C)[C@H]3CC(C)C)c(F)c2)C1", "note": "[Example 31, 1-(3-(3,5-difluoro-4-((6S, 7S)-7-isobutyl-8-methyl-6,7,8,9-tetrahydro-3H-pyrazolo [3,4-h]isoquinolin-6-yl)phenoxy)azetidin-1-yl) ethan-1-one]", "pIC50": "≥ 9.00"}, {"smiles": "CCCN1CC(Sc2cc(F)c([C@@H]3c4ccc5[nH]ncc5c4CN(C)[C@H]3CC(C)C)c(F)c2)C1", "note": "[Example 11]", "pIC50": "≥ 9.00"}, {"smiles": "CCCN1CC(Nc2cc(F)c([C@@H]3c4ccc5[nH]ncc5c4CN(C)[C@H]3CC(C)C)c(F)c2)C1", "note": "[Example 6, N-(3,5-difluoro-4-((6S, 7S)-7-isobutyl-8-methyl-6,7,8,9-tetrahydro-3H-pyrazolo [3,4-h]isoquinolin-6-yl)phenyl)-1-propylazetidin-3-amine]", "pIC50": "< 6.00"}, {"smiles": "CCCCCN1CC(Sc2cc(F)c([C@@H]3c4ccc5[nH]ncc5c4CN(C)[C@H]3CC(C)C)c(F)c2)C1", "note": "[Example 14, (6S, 7S)-6-(2,6-difluoro-4-((1-pentylazetidin-3-yl)thio)phenyl)-7-isobutyl-8-methyl-6,7,8,9-tetrahydro-3H-pyrazolo [3,4-h]isoquinoline]", "pIC50": "< 6.00"}, {"smiles": "CCCCCN1CC(Nc2cc(F)c([C@@H]3c4ccc5[nH]ncc5c4CN(C)[C@H]3CC(C)C)c(F)c2)C1", "note": "[Example 9, N-(3,5-difluoro-4-((6S, 7S)-7-isobutyl-8-methyl-6,7,8,9-tetrahydro-3H-pyrazolo [3,4-h]isoquinolin-6-yl)phenyl)-1-pentylazetidin-3-amine]", "pIC50": "< 6.00"}, {"smiles": "CC(C)C[C@H]1[C@H](c2c(F)cc(OC3CN(C(=O)C(C)C)C3)cc2F)c2ccc3[nH]ncc3c2CN1C", "note": "[Example 34, 1-(3-(3,5-difluoro-4-((6S, 7S)-7-isobutyl-8-methyl-6,7,8,9-tetrahydro-3H-pyrazolo [3,4-h]isoquinolin-6-yl)phenoxy)azetidin-1-yl)-2-methylpropan-1-one]", "pIC50": "8.00 to 9.00"}, {"smiles": "CC(C)C[C@H]1[C@H](c2c(F)cc(NC3CN(CCC(F)(F)F)C3)cc2F)c2ccc3[nH]ncc3c2CN1C", "note": "[Example 4, N-(3,5-difluoro-4-((6S, 7S)-7-isobutyl-8-methyl-6,7,8,9-tetrahydro-3H-pyrazolo [3,4-h]isoquinolin-6-yl)phenyl)-1-(3,3,3-trifluoropropyl) azetidin-3-amine]", "pIC50": "< 6.00"}, {"smiles": "CCCCN1CC(Oc2cc(F)c([C@@H]3c4ccc5[nH]ncc5c4CN(C)[C@H]3CC3CC3)c(F)c2)C1", "note": "[Example 23, (6S, 7S)-6-(4-((1-butylazetidin-3-yl)oxy)-2,6-difluorophenyl)-7-cyclopropylmethyl-8-methyl-6,7,8,9-tetrahydro-3H-pyrazolo [3,4-h]isoquinoline]", "pIC50": "< 6.00"}, {"smiles": "CC(C)C[C@H]1[C@H](c2c(F)cc(SC3CN(CC(C)C)C3)cc2F)c2ccc3[nH]ncc3c2CN1C", "note": "[Example 13, (6S, 7S)-6-(2,6-difluoro-4-((1-isobutylazetidin-3-yl)thio)phenyl)-7-isobutyl-8-methyl-6,7,8,9-tetrahydro-3H-pyrazolo [3,4-h]isoquinoline]", "pIC50": "6.00 to 8.00"}, {"smiles": "CC(C)C[C@H]1[C@H](c2c(F)cc(NC3CN(CC(F)CF)C3)cc2F)c2ccc3[nH]ncc3c2CN1C", "note": "(stereo partly drawn) [Example 3, N-(3,5-difluoro-4-((6S, 7S)-7-isobutyl-8-methyl-6,7,8,9-tetrahydro-3H-pyrazolo [3,4-h]isoquinolin-6-yl)phenyl)-1-(2,3-difluoropropyl) azetidin-3-amine]", "pIC50": "< 6.00"}, {"smiles": "CC(C)C[C@H]1[C@H](c2c(F)cc(SC3CN(CCCF)C3)cc2F)c2ccc3[nH]ncc3c2CN1C", "note": "[Example 10, (6S, 7S)-6-(2,6-difluoro-4-((1-(3-fluoropropyl)azetidin-3-yl)thio)phenyl)-7-isobutyl-8-methyl-6,7,8,9-tetrahydro-3H-pyrazolo [3,4-h]isoquinoline]", "pIC50": "≥ 9.00"}, {"smiles": "CCCCN1CC(Nc2cc(F)c([C@@H]3c4ccc5[nH]ncc5c4CN(C)[C@H]3CC(C)C)c(F)c2)C1", "note": "[Example 7, 1-butyl-N-(3,5-difluoro-4-((6S, 7S)-7-isobutyl-8-methyl-6,7,8,9-tetrahydro-3H-pyrazolo [3,4-h]isoquinolin-6-yl)phenyl) azetidin-3-amine]", "pIC50": "< 6.00"}, {"smiles": "CCCCCN1CC(Sc2cc(F)c([C@@H]3c4ccc5[nH]ncc5c4CN(C)[C@H]3CC3CC3)c(F)c2)C1", "note": "[Example 29, (6S, 7S)-7-cyclopropylmethyl-6-(2,6-difluoro-4-((1-pentylazetidin-3-yl)thio)phenyl)-8-methyl-6,7,8,9-tetrahydro-3H-pyrazolo [3,4-h]isoquinoline]", "pIC50": "< 6.00"}, {"smiles": "CCCCN1CC(Oc2cc(F)c([C@@H]3c4ccc5[nH]ncc5c4CN(C)[C@H]3CC(C)C)c(F)c2)C1", "note": "[Example 18]", "pIC50": "< 6.00"}, {"smiles": "CC(C)C[C@H]1[C@H](c2c(F)cc(NC3CN(CC(C)C)C3)cc2F)c2ccc3[nH]ncc3c2CN1C", "note": "[Example 8, N-(3,5-difluoro-4-((6S, 7S)-7-isobutyl-8-methyl-6,7,8,9-tetrahydro-3H-pyrazolo [3,4-h]isoquinolin-6-yl)phenyl)-1-isobutylazetidin-3-amine]", "pIC50": "< 6.00"}, {"smiles": "CC(C)C[C@H]1[C@H](c2c(F)cc(OC3CN(CC(C)C)C3)cc2F)c2ccc3[nH]ncc3c2CN1C", "note": "[Example 17, (6S, 7S)-6-(2,6-difluoro-4-((1-isobutylazetidin-3-yl)oxy)phenyl)-7-isobutyl-8-methyl-6,7,8,9-tetrahydro-3H-pyrazolo [3,4-h]isoquinoline]", "pIC50": "8.00 to 9.00"}, {"smiles": "CCCCN1CC(Sc2cc(F)c([C@@H]3c4ccc5[nH]ncc5c4CN(C)[C@H]3CC3CC3)c(F)c2)C1", "note": "[Example 27, (6S, 7S)-6-(4-((1-butylazetidin-3-yl)thio)-2,6-difluorophenyl)-7-cyclopropylmethyl-8-methyl-6,7,8,9-tetrahydro-3H-pyrazolo [3,4-h]isoquinoline]", "pIC50": "< 6.00"}, {"smiles": "CC(C)C[C@H]1[C@H](c2ccc(NC3CN(CCCF)C3)cc2)c2ccc3[nH]ncc3c2CN1C", "note": "[Example 1, 1-(3-fluoropropyl)-N-(4-((6R, 7S)-7-isobutyl-8-methyl-6,7,8,9-tetrahydro-3H-pyrazolo [3,4-h]isoquinolin-6-yl)phenyl)azetidin-3-amine]", "pIC50": "8.00 to 9.00"}, {"smiles": "CCCCN1CC(Sc2cc(F)c([C@@H]3c4ccc5[nH]ncc5c4CN(C)[C@H]3CC(C)C)c(F)c2)C1", "note": "[Example 12, (6S, 7S)-6-(4-((1-butylazetidin-3-yl)thio)-2,6-difluorophenyl)-7-isobutyl-8-methyl-6,7,8,9-tetrahydro-3H-pyrazolo [3,4-h]isoquinoline]", "pIC50": "6.00 to 8.00"}, {"smiles": "CCCN1CC(Sc2cc(F)c([C@@H]3c4ccc5[nH]ncc5c4CN(C)[C@H]3CC3CC3)c(F)c2)C1", "note": "[Example 26, (6S, 7S)-7-cyclopropylmethyl-6-(2,6-difluoro-4-((1-propylazetidin-3-yl)thio)phenyl)-8-methyl-6,7,8,9-tetrahydro-3H-pyrazolo [3,4-h]isoquinoline]", "pIC50": "6.00 to 8.00"}, {"smiles": "CN1Cc2c(ccc3[nH]ncc23)[C@@H](c2c(F)cc(NC3CN(CCCF)C3)cc2F)[C@@H]1CC1CC1", "note": "[Example 5, N-(4-((6S, 7S)-7-cyclopropylmethyl-8-methyl-6,7,8,9-tetrahydro-3H-pyrazolo [3,4-h]isoquinolin-6-yl)-3,5-difluorophenyl)-1-(3-fluoropropyl) azetidin-3-amine]", "pIC50": "< 6.00"}, {"smiles": "CCCN1CC(Oc2cc(F)c([C@@H]3c4ccc5[nH]ncc5c4CN(C)[C@H]3CC3CC3)c(F)c2)C1", "note": "[Example 21, (6S, 7S)-7-cyclopropylmethyl-6-(2,6-difluoro-4-((1-propylazetidin-3-yl)oxy)phenyl)-8-methyl-6,7,8,9-tetrahydro-3H-pyrazolo [3,4-h]isoquinoline]", "pIC50": "< 6.00"}, {"smiles": "CC(C)CN1CC(Oc2cc(F)c([C@@H]3c4ccc5[nH]ncc5c4CN(C)[C@H]3CC3CC3)c(F)c2)C1", "note": "[Example 22, (6S, 7S)-7-cyclopropylmethyl-6-(2,6-difluoro-4-((1-isobutylazetidin-3-yl)oxy)phenyl)-8-methyl-6,7,8,9-tetrahydro-3H-pyrazolo [3,4-h]isoquinoline]", "pIC50": "< 6.00"}, {"smiles": "CC(C)C[C@H]1[C@H](c2c(F)cc(OC3CN(CCCF)C3)cc2F)c2ccc3[nH]ncc3c2CN1C", "note": "[Example 15, (6S, 7S)-6-(2,6-difluoro-4-((1-(3-fluoropropyl)azetidin-3-yl)oxy)phenyl)-7-isobutyl-8-methyl-6,7,8,9-tetrahydro-3H-pyrazolo [3,4-h]isoquinoline]", "pIC50": "≥ 9.00"}, {"smiles": "C[C@]12CC[C@@H]3c4ccc(O)cc4C[C@@H](CCCCCCCCC[S+]([O-])CCCC(F)(F)C(F)(F)F)[C@H]3[C@@H]1CC[C@@H]2O", "note": "(stereo partly shown) [Fulvestrant, reference compound]", "pIC50": "6.00 to 8.00"}, {"smiles": "CCCC(=O)N1CC(Oc2cc(F)c([C@@H]3c4ccc5[nH]ncc5c4CN(C)[C@H]3CC(C)C)c(F)c2)C1", "note": "[Example 33, 1-(3-(3,5-difluoro-4-((6S, 7S)-7-isobutyl-8-methyl-6,7,8,9-tetrahydro-3H-pyrazolo [3,4-h]isoquinolin-6-yl)phenoxy)azetidin-1-yl) butan-1-one]", "pIC50": "6.00 to 8.00"}]}]}
